The text below walks through data of ChEMBL document CHEMBL4411288, “Design, synthesis and biological evaluation of novel 7-amino-[1,2,4]triazolo[4,3-f]pteridinone, and 7-aminotetrazolo[1,5-f]pteridinone derivative as potent antitumor agents” (Eur J Med Chem, 2019).

Activity calls are given as the source filed them. The calls are words filed in the database; no cut-off is given here.

Assay [1] has as its system A549. Nature of the assay: Cytotoxicity against human A549 cells assessed as reduction in cell viability after 72 hrs by MTT assay. It counts as functional, cell-based. As to conditions: A549, 72 h.
For assay [2], the system named is HCT-116. The experiment in a line: Cytotoxicity against human HCT116 cells assessed as reduction in cell viability after 72 hrs by MTT assay. The class given is functional, cell-based. The following applies: HCT-116, 72 h.
Assay [3] deals with PC-3. Nature of the assay: Cytotoxicity against human PC3 cells assessed as reduction in cell viability after 72 hrs by MTT assay. It counts as functional, cell-based. The following applies: PC-3, 72 h. For orientation: Tetrazolium dyes change colour on reduction, which living cells bring about.
Assay [4] addresses Serine/threonine-protein kinase PLK1 (Homo sapiens) (UniProt P53350). The experiment in a line: Inhibition of recombinant human N-terminal His6-tagged PLK1 expressed in baculovirus infected Sf21 insect cells at 1 uM using FAM-labelled peptide as substrate preincubated for 10 mins followed by substrate addition measured after 1 hr relative to control.
In assay [5] the test system is A549. Nature of the assay: Induction of apoptosis in human A549 cells assessed as late apoptotic cells at 1 uM after 24 hrs by acridine orange/ethidium bromide staining-based fluorescence microscopic method. The class given is functional, cell-based.
Assay [6] has as its system A549. The experiment in a line: Induction of apoptosis in human A549 cells assessed as late apoptotic cells at 5 uM after 24 hrs by acridine orange/ethidium bromide staining-based fluorescence microscopic method. The class given is functional, cell-based.
Assay [7] relates to MCF7. Nature of the assay: cells. As to conditions: Homo sapiens, MCF7, 72 h.
Description: Cytotoxicity against human MCF7 cells assessed as reduction in cell viability after 72 hrs by MTT assay
Assay [8] has as its system MDA-MB-231. The experiment in a line: cells. The following applies: Homo sapiens, MDA-MB-231, 72 h.
Description: Cytotoxicity against human MDA-MB-231 cells assessed as reduction in cell viability after 72 hrs by MTT assay

Serine/threonine-protein kinase PLK1 (Homo sapiens), sequence (P53350 whole entry): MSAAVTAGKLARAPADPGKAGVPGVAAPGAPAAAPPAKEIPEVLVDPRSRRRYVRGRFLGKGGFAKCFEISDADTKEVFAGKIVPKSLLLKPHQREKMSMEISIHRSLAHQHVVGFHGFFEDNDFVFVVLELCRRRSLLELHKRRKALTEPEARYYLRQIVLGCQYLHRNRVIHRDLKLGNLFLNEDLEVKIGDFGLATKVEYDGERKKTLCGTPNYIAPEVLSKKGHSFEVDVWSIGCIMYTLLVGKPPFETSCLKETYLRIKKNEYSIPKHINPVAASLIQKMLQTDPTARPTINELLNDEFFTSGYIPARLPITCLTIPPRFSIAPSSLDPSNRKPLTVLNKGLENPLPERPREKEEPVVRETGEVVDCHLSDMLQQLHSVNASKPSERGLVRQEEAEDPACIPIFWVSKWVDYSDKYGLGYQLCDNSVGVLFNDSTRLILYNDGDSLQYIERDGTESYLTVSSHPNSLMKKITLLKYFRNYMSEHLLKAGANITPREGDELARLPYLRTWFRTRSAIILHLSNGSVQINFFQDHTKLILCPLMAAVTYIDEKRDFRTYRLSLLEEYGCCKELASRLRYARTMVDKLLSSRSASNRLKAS

In the case of `CC1CN(c2ccc(Nc3ncc4c(n3)n(C3CCCC3)c(=O)c3nnnn34)cc2)CC(C)N1` (stereo unspecified), the IC50 (as a rule, the point on the concentration scale where inhibition reaches its midpoint) in assay [1] worked out at 0.44 µM; in assay [2], 0.6 µM; in assay [3], 1 µM; in assay [7] it was 0.5 µM; in assay [8], 1.6 µM. Besides, the inhibition (commonly the relative decrease from the control value, in per cent) in assay [4] was 77.9%. Further, the outcome in assay [5] and in assay [6] was Active.

On to `CC[C@@H]1C(=O)N(C)c2cnc(Nc3ccc(C(=O)N[C@H]4CC[C@H](N5CCN(CC6CC6)CC5)CC4)cc3OC)nc2N1C(C)C` [VOLASERTIB], for which the IC50 turned out to be 0.08 µM in assay [1]; 0.11 µM in assay [2]; 0.09 µM in assay [3]; 0.09 µM in assay [7]; 0.11 µM in assay [8]. Further, in assay [4], the inhibition was found to be 97.7%.

With `Cc1nnc2c(=O)n(C3CCCC3)c3nc(Nc4ccc(N5CCN(CCO)CC5)cc4)ncc3n12`, the IC50 turned out to be 5.46 µM in assay [1]; 7.61 µM in assay [2]; 8.44 µM in assay [3]; 0.75 µM in assay [7]; 3.35 µM in assay [8]. Further, the inhibition in assay [4] came to 28.2%.

As to `Cc1nnc2c(=O)n(C3CCCC3)c3nc(Nc4ccc(N5CCN(C6CCCC6)CC5)cc4)ncc3n12`, the IC50 in assay [1] was 11.4 µM; in assay [2], over 50 µM; in assay [3] it was over 50 µM; in assay [7], over 50 µM; in assay [8] it was 9.12 µM. Moreover, the inhibition in assay [4] stood at 31.6%.

In the case of `Cc1nnc2c(=O)n(C3CCCC3)c3nc(Nc4ccc(N5CCN(C)CC5)cc4)ncc3n12`, the half-maximal inhibitory concentration (IC50) is 1.92 µM in assay [1]; 72.8 µM in assay [2]; 7.61 µM in assay [3]; 1.05 µM in assay [7]; 0.61 µM in assay [8]. Further, in assay [4], the inhibition came out at 26.1%.

For the molecule `CCN1CCN(c2ccc(Nc3ncc4c(n3)n(C3CCCC3)c(=O)c3nnc(C)n34)cc2)CC1`, the IC50 in assay [1] is 0.68 µM; in assay [2], 9.61 µM; in assay [3], 5 µM; in assay [7], 0.51 µM; in assay [8] it was 2.25 µM. Also, in assay [4], the inhibition came to 44.7%.

Regarding `CN1CCN(c2ccc(Nc3ncc4c(n3)n(C3CCCC3)c(=O)c3nnnn34)cc2)CC1`, the IC50 in assay [1] was 1.25 µM; in assay [2], 19.1 µM; in assay [3], 3.8 µM; in assay [7], over 50 µM; in assay [8], 15.8 µM. For the same molecule, the inhibition in assay [4] was determined as 19.3%.

For the molecule `CC1CN(c2ccc(Nc3ncc4c(n3)n(C3CCCC3)c(=O)c3nncn34)cc2)CC(C)N1` (stereo unspecified), the concentration for half-maximal inhibition (IC50) came to 0.89 µM in assay [1]; 4.4 µM in assay [2]; 3.26 µM in assay [3]; 0.41 µM in assay [7]; 4.8 µM in assay [8]. In assay [4], the inhibition worked out at 72.1%.

Take `CN1CCN(c2ccc(Nc3ncc4c(n3)n(C3CCCC3)c(=O)c3nncn34)cc2)CC1`: the IC50 is 6.96 µM in assay [1]; 8 µM in assay [2]; 26.5 µM in assay [3]; over 50 µM in assay [7]; over 50 µM in assay [8]. Also, the inhibition in assay [4] was determined as 44.2%.
